In article PMC12441834, “Highly Potent and Subtype-Selective Sperm-Specific Potassium Channel SLO3 Inhibitors Display High Tissue Exposure in the Murine Female Reproductive Tract” (ACS Pharmacology & Translational Science, 2025):
Read-outs that look alike come from different tables or passages of the source.

Tests used:
[1] = Discrete IV PK in female mice; type: in vivo, mouse; settings: 5 mg/kg IV
Experimental: In-life phase–Compounds were formulated in 12% ethanol, 48% PEG400, and 40% DMSO (v/v/v) at a concentration of 1 mg/mL and administered as a single 0.2 mg/kg IV dose (1 mL/kg) to male, Sprague–Dawley rats (n = 1; 342 g body weight) via injection into a surgically implanted jugular vein catheter. Blood samples were collected serially from a surgically implanted carotid artery catheter in each animal over multiple postadministration time points (0.033, 0.117, 0.25, 0.5, 1, 2, 4, 7, and 24 h) into chilled, K2EDTA anticoagulant-fortified tubes and immediately placed on wet ice. The blood samples were then centrifuged (1700 rcf, 5 min, 4 °C) in order to obtain plasma samples, which were stored at −80 °C until analysis by LC-MS/MS. VU6032735 was also dosed IV in C57Bl6 mice at 5 mg/kg IV to determine mouse PK. Formulation and experimental design were identical to those used for rats except that whole blood was used for analysis.
(§1) Samples were analyzed via electrospray ionization (ESI) LC-MS/MS on an AB Sciex 4500 (Foster City, CA) triple-quadrupole instrument that was coupled with an Agilent 1290 Infinity Binary Pump and multisampler (Santa Clara, CA) and concentrations (ng/mL or ng/g) were determined using a matrix-matched 10-point standard curve and then converted to nM concentrations. Quantitation of compounds was performed via AB Sciex Multiquant software using the raw analyte:IS peak area ratios. The typical detection range was 0.5 ng/mL to ≥5000 ng/mL utilizing a quadratic equation regression with 1/x² weighting. Correction for dilution of all tissue samples was performed postquantitation. The corrections for dilution in the extraction buffer employed correction factors specific to each tissue weight.

[2] = Drug concentrations in compartments of the murine FRT after IP dosing; type: in vivo, mouse; settings: 10 mg/kg IP; for concentration at 0.25 hr / concentration at 0.5 hr / concentration at 1 hr / concentration at 3 hr / concentration at 6 hr / concentration at 24 hr: mouse
Experimental: as §1
In subsequent experiments, mice were dosed by injection into the peritoneum (ip) as a single 10 mg/kg dose, the reproductive organs were dissected, and the ovaries, the oviducts, and the uterus were pooled from 2 animals and frozen. Tissues were subjected to mechanical homogenization (Mini-BeadBeater, BioSpec Products, Inc., Bartlesville, OK) in the presence of stainless-steel beads (1.0 mm) and extraction buffer (isopropanol:water, 7:3, v/v; 1 mL per sample for whole reproductive organs and uterus and 250 μL for ovaries and oviducts). Homogenized tissue samples were then centrifuged (4000 rcf, 5 min, ambient temperature), and 5 μL of the supernatant was used for quantification of the analyte. The plasma standard curve and QCs were used for compound quantitation in reproductive tissues.

hSLO2.2 = molecular target: T1, hSLO2.2 (Homo sapiens, UniProt Q5JUK3); assay: SLO2.2 inhibition in HEK cells; type: cell-based
T1 construct: expressed in transfected cells; host or cells: HEK
T1 sequence (Q5JUK3 whole entry): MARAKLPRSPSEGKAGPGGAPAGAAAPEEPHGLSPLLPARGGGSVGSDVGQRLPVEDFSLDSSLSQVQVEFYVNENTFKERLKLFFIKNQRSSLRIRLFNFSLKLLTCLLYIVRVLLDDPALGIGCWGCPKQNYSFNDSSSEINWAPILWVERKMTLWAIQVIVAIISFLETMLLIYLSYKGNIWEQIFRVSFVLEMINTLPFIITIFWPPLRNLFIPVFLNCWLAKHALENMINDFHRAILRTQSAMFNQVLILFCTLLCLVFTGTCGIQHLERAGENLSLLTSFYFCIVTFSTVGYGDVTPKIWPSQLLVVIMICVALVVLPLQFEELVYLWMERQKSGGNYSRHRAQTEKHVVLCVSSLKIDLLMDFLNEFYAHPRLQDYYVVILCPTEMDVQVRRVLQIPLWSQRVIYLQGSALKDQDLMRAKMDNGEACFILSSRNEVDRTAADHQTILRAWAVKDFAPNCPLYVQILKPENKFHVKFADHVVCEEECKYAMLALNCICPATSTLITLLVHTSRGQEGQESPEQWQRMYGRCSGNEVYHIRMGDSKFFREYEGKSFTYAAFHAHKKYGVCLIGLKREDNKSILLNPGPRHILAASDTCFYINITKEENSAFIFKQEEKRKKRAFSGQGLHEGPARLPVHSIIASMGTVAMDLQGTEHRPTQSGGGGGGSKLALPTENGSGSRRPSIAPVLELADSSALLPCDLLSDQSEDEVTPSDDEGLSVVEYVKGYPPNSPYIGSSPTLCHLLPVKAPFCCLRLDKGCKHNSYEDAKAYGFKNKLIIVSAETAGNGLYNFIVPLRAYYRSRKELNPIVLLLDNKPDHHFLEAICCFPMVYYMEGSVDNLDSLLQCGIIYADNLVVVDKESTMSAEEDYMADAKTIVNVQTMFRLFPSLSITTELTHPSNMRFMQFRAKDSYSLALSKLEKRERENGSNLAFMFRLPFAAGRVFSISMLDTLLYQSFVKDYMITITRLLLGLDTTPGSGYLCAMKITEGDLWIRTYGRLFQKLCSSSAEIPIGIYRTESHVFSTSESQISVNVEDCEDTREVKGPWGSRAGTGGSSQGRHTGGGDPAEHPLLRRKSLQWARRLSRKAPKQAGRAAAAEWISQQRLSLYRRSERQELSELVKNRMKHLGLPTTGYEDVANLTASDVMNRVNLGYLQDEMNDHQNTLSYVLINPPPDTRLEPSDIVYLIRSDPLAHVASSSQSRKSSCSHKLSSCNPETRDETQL

[3] = ovary, female mice, read-out: Ovary concentration
[4] = oviduct, female mice, read-out: Oviduct concentration
[5] = plasma, female mice, read-out: Plasma concentration
[6] = uterus, female mice, read-out: Uterus concentration

In the case of `O=C(c1ccc(OCc2ccc(OC(F)(F)F)cc2)cc1)N1CCN(c2ccc(C(F)(F)F)cn2)CC1` [VU6032735], the CLobs [1] is reported as 8.6 mL/min/kg, the AUC ([1]; C57Bl6, mouse, whole blood) is reported as 9840 ng·h/mL and the MRT ([1]; C57Bl6, mouse, whole blood) is reported as 45.9 h. The half-life ([1]; C57Bl6, mouse, whole blood, read-out: Elim. t1/2 (converted)) was 33.7 h, the Vd ([1]; C57Bl6, mouse, whole blood, read-out: Vss) was 23.6 L/kg and the “oviduct total drug concentration relative to mSLO3 IC50” value ([2]; 24 h, versus IC50 in mouse sperm and in mSLO3-γ2 HEK293 cells) was 4.4- to 5.5 fold. For the same molecule, the “oviduct concentration relative to ovary” value ([2]; female mice) was 10 fold, the “oviduct concentration relative to uterus” value ([2]; female mice) was 5 fold and the “total concentrations in the different compartments of the reproductive tract” value ([2]; female mice, for 24 h after dosing) was “above 1 μM”. It also gave a concentration at 0.25 hr [2, 3] of 7.52 µM, a concentration at 0.5 hr [2, 3] of 7.69 µM and a concentration at 1 hr [2, 3] of 7.45 µM. For the same molecule, the concentration at 3 hr [2, 3] was 2.63 µM, the concentration at 6 hr [2, 3] was 3.54 µM and the concentration at 24 hr [2, 3] was 1.97 µM. The concentration at 0.25 hr [2, 4] was 73 µM, the concentration at 0.5 hr [2, 4] was 94.8 µM and the concentration at 1 hr [2, 4] was 95.2 µM. The concentration at 3 hr [2, 4] was 93.6 µM, the concentration at 6 hr [2, 4] was 35.3 µM and the concentration at 24 hr [2, 4] was 4.02 µM. For the same molecule, the concentration at 0.25 hr [2, 5] was 1.15 µM, the concentration at 0.5 hr [2, 5] was 0.45 µM and the concentration at 1 hr [2, 5] was 0.62 µM. For the same molecule, the concentration at 3 hr [2, 5] was 0.98 µM, the concentration at 6 hr [2, 5] was 2.14 µM and the concentration at 24 hr [2, 5] was 0.61 µM. The concentration at 0.25 hr [2, 6] was 12.4 µM, the concentration at 0.5 hr [2, 6] was 11.3 µM and the concentration at 1 hr [2, 6] was 21.8 µM. For the same molecule, the concentration at 3 hr [2, 6] was 4.35 µM, the concentration at 6 hr [2, 6] was 6.66 µM and the concentration at 24 hr [2, 6] was 3.11 µM.

In the case of `Cc1cc(Cl)cc2sc(OC3CCN(C(=O)CCCS(=O)(=O)c4cccc(Br)c4)CC3F)nc12` (stereo not shown) [VU6045330], the “HEK hSLO2.2 % inhib. 10 μM” value (hSLO2.2) is reported as “No inhibition”.
